This note sets out measurements from publication PMC6934184, “Selective DNA-PKcs inhibition extends the therapeutic index of localized radiotherapy and chemotherapy” (The Journal of Clinical Investigation, 2019).

The target of the test is T1, KIT D820E (Homo sapiens, UniProt P10721, D820E).
T1 construct: purchased Thermo Fisher Scientific (Life Technologies) SelectScreen
The experiment in a line: SelectScreen LanthaScreen. The class given is binding. Conditions: read-out: % displacement. The procedure, abridged: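 NU5455 was profiled across the SelectScreen Broad panel of kinase activity and binding assays. Z'LYTE reactions such as CSF1R ran at apparent Km ATP, while the Adapta CAMK1 assay used ATP listed as 10. Values are given as percent.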

T1 sequence (P10721 26-976 D820E): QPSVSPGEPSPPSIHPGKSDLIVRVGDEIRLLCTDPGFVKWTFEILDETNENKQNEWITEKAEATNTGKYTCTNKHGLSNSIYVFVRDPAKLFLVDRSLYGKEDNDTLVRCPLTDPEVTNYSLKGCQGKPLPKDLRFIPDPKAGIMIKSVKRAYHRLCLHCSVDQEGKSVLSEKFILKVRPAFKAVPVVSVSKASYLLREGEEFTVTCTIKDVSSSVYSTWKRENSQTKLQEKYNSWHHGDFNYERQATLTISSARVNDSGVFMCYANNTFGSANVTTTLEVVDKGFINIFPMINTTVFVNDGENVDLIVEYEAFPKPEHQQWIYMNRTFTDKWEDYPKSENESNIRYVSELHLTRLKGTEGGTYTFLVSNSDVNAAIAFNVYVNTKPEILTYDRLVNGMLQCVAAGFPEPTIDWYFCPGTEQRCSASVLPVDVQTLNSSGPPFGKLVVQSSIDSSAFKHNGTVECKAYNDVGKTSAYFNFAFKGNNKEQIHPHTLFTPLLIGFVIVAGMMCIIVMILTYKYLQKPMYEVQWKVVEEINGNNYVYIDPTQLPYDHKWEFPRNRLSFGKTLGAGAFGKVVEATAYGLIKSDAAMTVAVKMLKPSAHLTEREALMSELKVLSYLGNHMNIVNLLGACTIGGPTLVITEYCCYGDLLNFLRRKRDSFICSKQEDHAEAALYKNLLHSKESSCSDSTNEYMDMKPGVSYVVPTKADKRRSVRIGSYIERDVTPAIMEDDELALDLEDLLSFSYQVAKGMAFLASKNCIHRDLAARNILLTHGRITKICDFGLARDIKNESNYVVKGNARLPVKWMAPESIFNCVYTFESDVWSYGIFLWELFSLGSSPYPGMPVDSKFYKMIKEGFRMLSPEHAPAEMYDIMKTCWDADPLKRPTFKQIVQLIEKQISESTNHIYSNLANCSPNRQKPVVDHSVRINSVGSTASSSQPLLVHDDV

As for `CN(C(=O)CN1CCOCC1)c1ccc2sc3c(-c4cccc5c(=O)cc(N6CC7CCC(C6)O7)oc45)cccc3c2c1` [NU5455], the inhibition at 1 µM was determined as 1.3%.
